These are literature values, as cited in patent US20180169002A1, “Skin Rejuvenation and Defense Systems and Methods” (Maple Mountain Group, Inc., priority 2015, published 2018).

For the series the following is noted: compared with glycerin.

For the molecule `NC(=O)NCCO` [Hydroxyethyl Urea, Hydroxyethyl urea], the moisturization efficacy result is given as “comparable to the leading benchmark”.
